“Also recorded” adds a separate entry of the source. Bridge positions count the residues as written; N and C are the ends. Ends that are not written are not given here.
Key:
[1] = relative weight change by rats injected daily; type: in vivo, rat; conditions: for relative weight change: same dose; for effectiveness in weight control: FIGS. 5 and 6
Excerpt: FIG. 5 is a graph illustrating relative weight change by rats injected daily with the same dose of either a placebo, UGP269 (SEQ ID NO: 12) or UGP 271 (SEQ ID NO: 13), at 7 and 14 days after commencement of the injection regimen. […] UGP 271 contained nearly the same sequence of amino acids as UGP269 except for the replacement of three amino acids at positions 26, 27 and 29.
FIG. 6 is a graph illustrating relative weight change by rats injected daily with the same dose of either a placebo, salmon calcitonin, UGP 271 (SEQ ID NO: 13) or UGP 281 (SEQ ID NO: 14) at 7 and 14 days after commencement of the injection regimen. FIG. 1 is a graph illustrating data from a bioassay comparing cAMP response for a peptide of the invention, SEQ ID NO:3, versus recombinant salmon calcitonin. […] UGP281 and UGP271 had identical amino acid sequences except that UGP281 was acylated at the N-terminus with acetate.

[2] = placebo controlled crossover study with Beagle dogs, oral enteric-coated capsules (food intake, weight); type: in vivo, Beagle dog; conditions: for effect on food intake / change in weight during the dosing period: oral capsules; for effect on food intake: equivalent doses, week of dosing, FIG. 2; for change in weight during the dosing period: same dose, FIG. 3
Excerpt: (§1) FIG. 2 is a graph illustrating the effect on food consumption provided by SEQ ID NO: 3 versus a placebo and two known appetite suppressants in a Beagle dog study. Average daily change in food consumption is shown following administration of oral capsules containing various doses of sCT, PYY or SEQ ID NO: 3 given to beagle dogs for four to seven days.
as §1, with “3” for “2”, “weight” for “food consumption”, “PYY,” for “PYY”
The effect of peptide SEQ ID NO: 3 on food intake was investigated in a placebo controlled crossover study with Beagle dogs. Peptide SEQ ID NO: 3, as well as salmon calcitonin (sCT) and PYY(3-36)NH2 were formulated in enteric-coated capsules for oral delivery. The capsules also contained excipients that inhibit proteases and enhance the absorption of peptides. Placebo capsules contained the same excipients without the peptide. Food and water intake, as well as the weight of the dogs was monitored daily before, during, and after the dosing period. Dogs were allowed access to a known amount of food for an 8 hour period every day, and water was provided ad libitum. […] The food intake of dogs given a placebo remained unchanged.

[3] = molecular target: T1, calcitonin receptor (Homo sapiens, UniProt P30988); test: cAMP response bioassay with T47D cells; type: cell-based; conditions: FIG. 1, versus recombinant salmon calcitonin
T1 construct: endogenous in cells; host or cells: T47D cells
T1 sequence (P30988 25-474): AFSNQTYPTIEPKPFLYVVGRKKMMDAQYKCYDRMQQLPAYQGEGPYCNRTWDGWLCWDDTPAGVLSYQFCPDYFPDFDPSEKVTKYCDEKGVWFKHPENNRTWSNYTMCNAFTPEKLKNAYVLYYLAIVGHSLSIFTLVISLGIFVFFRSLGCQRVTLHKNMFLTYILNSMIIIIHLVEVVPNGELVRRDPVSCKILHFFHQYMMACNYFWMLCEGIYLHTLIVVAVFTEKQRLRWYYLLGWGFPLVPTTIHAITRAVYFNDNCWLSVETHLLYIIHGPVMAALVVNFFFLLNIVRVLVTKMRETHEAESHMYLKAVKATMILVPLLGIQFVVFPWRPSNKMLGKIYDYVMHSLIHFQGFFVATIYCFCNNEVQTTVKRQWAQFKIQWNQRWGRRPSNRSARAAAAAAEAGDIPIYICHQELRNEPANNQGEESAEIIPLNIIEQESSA
Method: FIG. 1 is a graph illustrating data from a bioassay comparing cAMP response for a peptide of the invention, SEQ ID NO: 3, versus recombinant salmon calcitonin. Two replicate bioassay experiments were performed measuring the cAMP response with T47D cells. Each experiment compared three samples of SEQ ID NO: 3 to a sample of rsCT.

[4] = molecular target: T2, calcitonin receptors on T47D cells (Homo sapiens, UniProt P30988); test: binding to calcitonin receptors on T47D cells
T2 construct: endogenous in cells; host or cells: T47D cells
T2 sequence (P30988 25-474): T1 sequence (P30988 25-474)
Excerpt: FIG. 4 is a graph illustrating calcitonin-like properties of three peptides of the invention in comparison to salmon calcitonin in an assay that measures binding to calcitonin receptors on T47D cells. The three peptides of the invention are UGP269 (SEQ ID NO: 12), UGP 271 (SEQ ID NO: 13) and UGP281 (SEQ ID NO: 14).

[5] = rats injected intramuscularly daily, two weeks, FIG. 6
[6] = rats injected daily, 7 and 14 days, FIG. 5, versus placebo

CC(C)C[C@H](NC(=O)[C@H](CCCCN)NC(=O)CNC(=O)[C@H](CC(C)C)NC(=O)[C@@H](NC(=O)[C@@H]1CSSC[C@H](N)C(=O)N[C@@H](CO)C(=O)N[C@@H](CC(N)=O)C(=O)N[C@@H](CC(C)C)C(=O)N[C@@H](CO)C(=O)N[C@@H]([C@@H](C)O)C(=O)N1)C(C)C)C(=O)N[C@@H](CO)C(=O)N[C@@H](CCC(N)=O)C(=O)N[C@@H](CCC(=O)O)C(=O)N[C@@H](CC(C)C)C(=O)N[C@@H](Cc1c[nH]cn1)C(=O)N[C@@H](CCCCN)C(=O)N[C@@H](CC(C)C)C(=O)N[C@@H](CCC(N)=O)C(=O)N[C@H](C(=O)N[C@@H](Cc1ccc(O)cc1)C(=O)N1CCC[C@H]1C(=O)N[C@@H](CCCNC(=N)N)C(=O)N[C@H](C(=O)N[C@@H](CC(N)=O)C(=O)N[C@H](C(=O)NCC(=O)N[C@@H](CO)C(=O)NCC(=O)N[C@H](C(=O)N1CCC[C@H]1C(N)=O)[C@@H](C)O)[C@@H](C)O)[C@@H](C)O)[C@@H](C)O [sCT, salmon calcitonin]
relative weight change [1, 5]: significant weight loss | effect on food intake [2]: significantly decreased food intake | change in weight during the dosing period [2]: small but significant reduction in weight

PYY(3-36)NH2
effect on food intake [2]: lesser effect | change in weight during the dosing period [2]: 0.05 % per day

SEQ ID NO: 3: salmon calcitonin sequence except asparagine at position 30 and tyrosine at position 32, amidated at tyrosine-32 (CSNLSTCVLGKLSQELHKLQTYPRTNTGSNTY-NH2; ends and bridges not checked)
potency in reducing food consumption relative to sCT ([2]; FIGS. 1-3): comparable to that of the bone anti-resorptive peptide sCT | effect on food intake [2]: significantly decreased food intake | change in weight during the dosing period [2]: small but significant reduction in weight | cAMP response (indicator of calcitonin receptor activation) compared with salmon calcitonin [3]: less potent when binding to the calcitonin receptor than is natural salmon calcitonin

UGP269: peptide of the invention, calcitonin analog (CSNLSTCVLGKLSQELHKLQTYPRTNTGSNTY-NH2; disulfide 1-7; N-terminus assumed; SMILES CC(C)C[C@H](NC(=O)[C@H](CCCCN)NC(=O)CNC(=O)[C@H](CC(C)C)NC(=O)[C@@H](NC(=O)[C@@H]1CSSC[C@H](N)C(=O)N[C@@H](CO)C(=O)N[C@@H](CC(N)=O)C(=O)N[C@@H](CC(C)C)C(=O)N[C@@H](CO)C(=O)N[C@@H]([C@@H](C)O)C(=O)N1)C(C)C)C(=O)N[C@@H](CO)C(=O)N[C@@H](CCC(N)=O)C(=O)N[C@@H](CCC(=O)O)C(=O)N[C@@H](CC(C)C)C(=O)N[C@@H](Cc1c[nH]cn1)C(=O)N[C@@H](CCCCN)C(=O)N[C@@H](CC(C)C)C(=O)N[C@@H](CCC(N)=O)C(=O)N[C@H](C(=O)N[C@@H](Cc1ccc(O)cc1)C(=O)N1CCC[C@H]1C(=O)N[C@@H](CCCNC(=N)N)C(=O)N[C@H](C(=O)N[C@@H](CC(N)=O)C(=O)N[C@H](C(=O)NCC(=O)N[C@@H](CO)C(=O)N[C@@H](CC(N)=O)C(=O)N[C@H](C(=O)N[C@@H](Cc1ccc(O)cc1)C(N)=O)[C@@H](C)O)[C@@H](C)O)[C@@H](C)O)[C@@H](C)O)
relative weight change [1, 6]: less weight gain over two weeks than those injected with placebo | effectiveness in weight control ([1]; rats): good effectiveness in weight control | binding to calcitonin receptors compared with sCT ([4]; FIG. 4): less binding to sCT receptors than sCT; also recorded: less binding affinity for the calcitonin receptor than does salmon calcitonin

UGP271: nearly the same sequence as UGP269 except for the replacement of three amino acids at positions 26, 27 and 29 (CSNLSTCVLGKLSQELHKLQTYPRTDVGANTY-NH2; disulfide 1-7; N-terminus assumed; SMILES CC(C)C[C@H](NC(=O)[C@H](CCCCN)NC(=O)CNC(=O)[C@H](CC(C)C)NC(=O)[C@@H](NC(=O)[C@@H]1CSSC[C@H](N)C(=O)N[C@@H](CO)C(=O)N[C@@H](CC(N)=O)C(=O)N[C@@H](CC(C)C)C(=O)N[C@@H](CO)C(=O)N[C@@H]([C@@H](C)O)C(=O)N1)C(C)C)C(=O)N[C@@H](CO)C(=O)N[C@@H](CCC(N)=O)C(=O)N[C@@H](CCC(=O)O)C(=O)N[C@@H](CC(C)C)C(=O)N[C@@H](Cc1c[nH]cn1)C(=O)N[C@@H](CCCCN)C(=O)N[C@@H](CC(C)C)C(=O)N[C@@H](CCC(N)=O)C(=O)N[C@H](C(=O)N[C@@H](Cc1ccc(O)cc1)C(=O)N1CCC[C@H]1C(=O)N[C@@H](CCCNC(=N)N)C(=O)N[C@H](C(=O)N[C@@H](CC(=O)O)C(=O)N[C@H](C(=O)NCC(=O)N[C@@H](C)C(=O)N[C@@H](CC(N)=O)C(=O)N[C@H](C(=O)N[C@@H](Cc1ccc(O)cc1)C(N)=O)[C@@H](C)O)C(C)C)[C@@H](C)O)[C@@H](C)O)
relative weight change [1, 6]: no weight gain | relative weight change [1, 5]: modest weight loss | effectiveness in weight control ([1]; rats): good effectiveness in weight control | binding to calcitonin receptors compared with sCT ([4]; FIG. 4): less binding to sCT receptors than sCT | binding to calcitonin receptors compared with sCT ([4]; FIG. 4, listed as UGP 271): less binding affinity for the calcitonin receptor than does salmon calcitonin

UGP281: amino acid sequence identical to UGP271 except acylated at the N-terminus with acetate (Ac-CSNLSTCVLGKLSQELHKLQTYPRTDVGANTY-NH2; disulfide 1-7; SMILES CC(=O)N[C@H]1CSSC[C@@H](C(=O)N[C@H](C(=O)N[C@@H](CC(C)C)C(=O)NCC(=O)N[C@@H](CCCCN)C(=O)N[C@@H](CC(C)C)C(=O)N[C@@H](CO)C(=O)N[C@@H](CCC(N)=O)C(=O)N[C@@H](CCC(=O)O)C(=O)N[C@@H](CC(C)C)C(=O)N[C@@H](Cc2c[nH]cn2)C(=O)N[C@@H](CCCCN)C(=O)N[C@@H](CC(C)C)C(=O)N[C@@H](CCC(N)=O)C(=O)N[C@H](C(=O)N[C@@H](Cc2ccc(O)cc2)C(=O)N2CCC[C@H]2C(=O)N[C@@H](CCCNC(=N)N)C(=O)N[C@H](C(=O)N[C@@H](CC(=O)O)C(=O)N[C@H](C(=O)NCC(=O)N[C@@H](C)C(=O)N[C@@H](CC(N)=O)C(=O)N[C@H](C(=O)N[C@@H](Cc2ccc(O)cc2)C(N)=O)[C@@H](C)O)C(C)C)[C@@H](C)O)[C@@H](C)O)C(C)C)NC(=O)[C@H]([C@@H](C)O)NC(=O)[C@H](CO)NC(=O)[C@H](CC(C)C)NC(=O)[C@H](CC(N)=O)NC(=O)[C@H](CO)NC1=O)
relative weight change [1, 5]: significant weight loss | enhancement of efficacy by the acetyl group on cysteine-1 ([1]; rats, FIG. 6, UGP281 versus UGP271): substantial enhancement of efficacy | effectiveness in weight control ([1]; rats): good effectiveness in weight control | binding to calcitonin receptors compared with sCT ([4]; FIG. 4): less binding to sCT receptors than sCT; also recorded: less binding affinity for the calcitonin receptor than does salmon calcitonin

From patent publication US9833494B2, “Methods of treating medical conditions using peptides” (KeyBioscience AG, priority 2009, dated 2017)
